Values of other authors as cited in patent US6627665B2 (Arch Chemicals, Inc., priority 2001, dated 2003).

Test system: rats

In the case of On1ccccc1=S.On1ccccc1=S.[Cu] [Copper pyrithione powder, copper pyrithione], the “acute inhalation toxicity relative to zinc pyrithione powder” value is given as “more toxic than zinc pyrithione powder”.
